Our source for the Dmax and DC50 values is patent US20250114356A1, “INDAZOLE BASED COMPOUNDS AND ASSOCIATED METHODS OF USE” (Arvinas Operations, Inc., priority 2020, published 2025).

Holding throughout (type): cell-based
One assay has as its target T1, wildtype LRRK2 (Homo sapiens, UniProt Q5S007).
T1 construct: expressed in transfected cells; host or cells: HEK293 (ATCC CRL-1573), transient transfection, ubiquitin promoter
Put plainly: LRRK2 degradation assay, wildtype LRRK2-HiBit expressed from plasmid in HEK293 cells. To be noted: HEK293 cells transfected with HiBit-tagged wildtype LRRK2, 24 hours compound incubation; for Dmax: read-out: **WT Dmax (%); for DC50: read-out: *WT DC50. The procedure, abridged:
(§1)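 DC50 and Dmax derived from per-plate curve fits of LRRK2-HiBit signal over firefly luciferase (cell number/viability), as % of DMSO median, from 6 replicates across two days. Compound exposure was 24 hours at 37° C. in HEK293 cells transfected with wild-type or G2019S LRRK2 bearing a C-terminal HiBit tag.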
(In general: HiBiT is a short tag that completes a luciferase, so light tracks the accessible tagged protein.)

In another assay the target is T2, G2019S LRRK2 (Homo sapiens, UniProt Q5S007, G2019S).
T2 construct: expressed in transfected cells; host or cells: HEK293 (ATCC CRL-1573), transient transfection, ubiquitin promoter
T2 sequence (Q5S007 whole entry G2019S): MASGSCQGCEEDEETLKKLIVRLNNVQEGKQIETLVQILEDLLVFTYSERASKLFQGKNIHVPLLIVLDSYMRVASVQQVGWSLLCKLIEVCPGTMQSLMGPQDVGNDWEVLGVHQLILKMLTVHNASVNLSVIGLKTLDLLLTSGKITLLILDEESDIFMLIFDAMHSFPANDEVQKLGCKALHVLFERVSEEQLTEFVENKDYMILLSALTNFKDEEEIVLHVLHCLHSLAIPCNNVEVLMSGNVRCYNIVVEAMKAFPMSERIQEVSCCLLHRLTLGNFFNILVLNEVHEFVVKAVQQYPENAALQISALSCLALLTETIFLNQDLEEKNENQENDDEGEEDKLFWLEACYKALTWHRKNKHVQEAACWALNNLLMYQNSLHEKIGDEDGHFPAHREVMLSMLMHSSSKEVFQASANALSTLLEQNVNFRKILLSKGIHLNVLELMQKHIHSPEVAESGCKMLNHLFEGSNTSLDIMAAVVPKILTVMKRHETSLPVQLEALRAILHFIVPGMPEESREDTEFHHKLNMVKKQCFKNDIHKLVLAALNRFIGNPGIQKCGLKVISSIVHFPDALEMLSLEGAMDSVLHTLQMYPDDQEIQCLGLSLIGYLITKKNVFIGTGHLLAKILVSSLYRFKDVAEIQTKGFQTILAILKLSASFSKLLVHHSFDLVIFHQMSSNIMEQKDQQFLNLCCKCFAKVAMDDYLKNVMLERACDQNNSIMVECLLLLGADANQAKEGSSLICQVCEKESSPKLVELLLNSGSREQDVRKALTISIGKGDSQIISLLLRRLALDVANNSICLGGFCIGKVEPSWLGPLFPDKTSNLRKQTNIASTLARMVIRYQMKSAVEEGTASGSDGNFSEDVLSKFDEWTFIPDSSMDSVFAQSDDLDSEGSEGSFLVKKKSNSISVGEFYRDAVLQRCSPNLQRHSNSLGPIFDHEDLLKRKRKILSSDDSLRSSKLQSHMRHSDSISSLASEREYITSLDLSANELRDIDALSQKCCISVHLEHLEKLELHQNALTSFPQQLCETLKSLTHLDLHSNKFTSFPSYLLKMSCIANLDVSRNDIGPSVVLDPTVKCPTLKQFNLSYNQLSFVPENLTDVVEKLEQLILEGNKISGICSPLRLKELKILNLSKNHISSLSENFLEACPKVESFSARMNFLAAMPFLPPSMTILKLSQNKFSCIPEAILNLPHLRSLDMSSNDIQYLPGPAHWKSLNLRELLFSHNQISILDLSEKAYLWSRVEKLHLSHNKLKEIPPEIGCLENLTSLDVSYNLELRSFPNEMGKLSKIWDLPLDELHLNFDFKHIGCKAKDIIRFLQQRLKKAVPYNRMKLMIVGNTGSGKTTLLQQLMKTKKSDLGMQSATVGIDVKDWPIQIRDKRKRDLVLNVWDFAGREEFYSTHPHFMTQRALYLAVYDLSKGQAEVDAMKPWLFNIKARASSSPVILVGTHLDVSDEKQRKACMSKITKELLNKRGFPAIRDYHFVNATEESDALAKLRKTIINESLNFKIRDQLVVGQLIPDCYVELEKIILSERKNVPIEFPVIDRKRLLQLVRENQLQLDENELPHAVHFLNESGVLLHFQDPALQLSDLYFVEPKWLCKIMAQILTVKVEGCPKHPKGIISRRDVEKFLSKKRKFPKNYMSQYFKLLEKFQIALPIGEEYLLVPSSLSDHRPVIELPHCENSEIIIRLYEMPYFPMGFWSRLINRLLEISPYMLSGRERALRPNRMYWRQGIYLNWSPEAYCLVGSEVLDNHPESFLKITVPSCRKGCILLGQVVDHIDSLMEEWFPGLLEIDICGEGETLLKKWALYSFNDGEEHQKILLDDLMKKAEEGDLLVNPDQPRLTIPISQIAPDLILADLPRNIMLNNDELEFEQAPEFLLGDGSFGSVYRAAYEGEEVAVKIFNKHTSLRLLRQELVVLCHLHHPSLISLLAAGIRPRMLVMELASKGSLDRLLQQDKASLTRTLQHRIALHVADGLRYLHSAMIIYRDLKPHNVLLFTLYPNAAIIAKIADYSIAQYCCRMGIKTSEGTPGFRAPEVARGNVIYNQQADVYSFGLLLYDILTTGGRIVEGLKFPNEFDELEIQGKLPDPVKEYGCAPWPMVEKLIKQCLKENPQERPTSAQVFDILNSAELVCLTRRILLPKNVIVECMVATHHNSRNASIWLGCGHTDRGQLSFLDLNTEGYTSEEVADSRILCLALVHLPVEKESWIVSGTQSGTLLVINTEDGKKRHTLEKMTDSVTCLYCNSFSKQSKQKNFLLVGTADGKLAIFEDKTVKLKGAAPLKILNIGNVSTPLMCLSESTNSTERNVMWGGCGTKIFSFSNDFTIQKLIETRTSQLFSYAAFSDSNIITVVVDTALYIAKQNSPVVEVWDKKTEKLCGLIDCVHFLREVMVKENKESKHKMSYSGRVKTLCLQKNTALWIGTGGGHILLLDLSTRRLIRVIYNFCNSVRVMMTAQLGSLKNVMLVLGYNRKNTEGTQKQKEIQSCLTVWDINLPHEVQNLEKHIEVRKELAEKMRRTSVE
Put plainly: LRRK2 degradation assay, G2019S LRRK2-HiBit expressed from plasmid in HEK293 cells. The following applies: HEK293 cells transfected with HiBit-tagged G2019S LRRK2, 24 hours compound incubation. In a few lines: as §1

In assay [1] the target is T3, LRRK2 (endogenous gene tagged with a HiBit sequence) (Homo sapiens, UniProt Q5S007).
T3 construct: endogenous in cells; host or cells: HEK293 with a HiBit knock-in at the endogenous LRRK2 locus, stably expressing firefly luciferase
T3 sequence (Q5S007 whole entry): as the sequence (Q5S007 whole entry G2019S) above, with S2019G counted along it
Put plainly: LRRK2 degradation assay, endogenous LRRK2 gene tagged with HiBit in HEK293 cells. The following applies: 24 hours compound incubation; for Dmax: read-out: **Endogenous WT Dmax (%); for DC50: read-out: *Endogenous WT DC50. The protocol:
The assay measures the degradation of LRRK2 in cells where the C-terminus (3′) of the endogenous gene has been tagged with a HiBit sequence in HEK293 cells. The cells also express firefly lucisferase, expressed from a Cytomegalovirus promoter and introduced into the HiBit tagged cells and stably expressed. The Nano-Glo® Dual Luciferase Reporter Assay System (Promega™, Madison, WI) was utilized.
Day 1—Preparation of Compound and Assay Plates. Two sets of plates were prepared: a triplicate set for the HiBit assay in white 384-well plates and a triplicate set of plate in black 384-well plates for the Alamar Blue cell viability assay. Briefly, the growth media (DMEM+Glutamax-10% fetal bovine serum-1% Penicillin-Streptomicin) from two T128 flasks was aspirated from the flasks. Cells were washed with Dulbecco's Phosphate Buffered Saline (dPBS) and aspirated. Trypsin (3 mL per flask) was added and the flasks were incubated for 2-3 minutes.
Ten mL of OptiMEM-10% fetal bovine-1% penicillin-streptomycin (hereinafter, “OptiMEM media”) was added to the flask and the cells and transferred to a 50 mL conical tube. A cell count (25 ul of cell into Effendorf vial+25 ul of Trypan Blue Stain) was performed and the cell density adjusted to 15,000 cell/45 μl/well (3.33×10^5/mL) in OptiMEM media.
Forty-five microliters of the cell suspension (15,000 cells) was aliquoted to each well of the white 384-well plate. The plates incubated at room temperature for 10 minutes before being placed in the 37° C.+5% CO2 incubator overnight
Day 2—Compound Treatment. Exemplary compounds were prepared at a 1 mM starting concentration and 1:3 serial dilution for 11 points CRC prepared and stored in the freezer. The Master Compound Plate was thawed overnight at room temperature. DMSO (20 μL) was added into column 24 of the Master Compound Plate for negative control and 20 μL of 300 μM of Exemplary Compound 4 in column 23 as positive control.
Intermediate Compound Plate with 4% DMSO in OptiMEM Media. DMSO was added to warm OptiMEM media to achieve a 4% DMSO solution (approximately 50 mL/plate). One-hundred microliters of the OptiMEM-4% DMSO was aliquoted to each well of 384-Well Deep Well Microplates.
The Master Compound Plate and the Intermediate Compound Plate were spun down.
One microliter of compound from the Master Compound Plate was transferred into the Intermediate plate (a 1:100 dilution). […]
Day 3—HiBit Assay. […] Fluorescence of each plate was read on a plated reader for the Alamar Blue viability assay. […]
The One Glo luciferase mixture was prepared. […] The luminescence of each plate was read on a plate reader.
1:100 DLR substrate and 1:100 LgBiT Protein dilution were added to the Promega Stop and Glo buffer and mixed just before addition to assay plates. […] The luminescence of each plate was read on a plate reader. […]

T1 sequence (Q5S007 whole entry): as the sequence (Q5S007 whole entry G2019S) above, with S2019G counted along it

As usually defined, the Dmax is the largest share of the target that was removed. Broadly, the DC50 is the concentration at which degradation of the target reaches its halfway point. Consider `C[C@H]1CN(c2cc(-c3n[nH]c4ccc(OC5(C)CC5)cc34)ncn2)CCN1CCOCCOCCOCCOc1ccc2c(c1)C(=O)N(C1CCC(=O)NC1=O)C2=O` (stereo partly drawn) [compound 4, 2-(2,6-dioxopiperidin-3-yl)-5-{2-[2-(2-{2-[(2S)-2-methyl-4-{6-[5-(1-methylcyclopropoxy)-1H-indazol-3-yl]pyrimidin-4-yl}piperazin-1-yl]ethoxy}ethoxy)ethoxy]ethoxy}-2,3-dihydro-1H-isoindole-1,3-dione], for which the Dmax (on wildtype LRRK2; on G2019S LRRK2; in assay [1]) was 50 to 70% in each case. Besides, the 50% degradation concentration (DC50) at wildtype LRRK2 was under 10 nM; on G2019S LRRK2 it was 10 to 50 nM; in assay [1], under 10 nM.

For the molecule `C[C@H]1CN(c2cc(-c3n[nH]c4ccc(OC5(C)CC5)cc34)ncn2)CCN1CC1CCN(CC2CCN(c3ccc4c(c3)C(=O)N(C3CCC(=O)NC3=O)C4=O)CC2)CC1` (stereo partly drawn) [compound 24, 2-(2,6-dioxopiperidin-3-yl)-5-{4-[(4-{[(2S)-2-methyl-4-{6-[5-(1-methylcyclopropoxy)-1H-indazol-3-yl]pyrimidin-4-yl}piperazin-1-yl]methyl}piperidin-1-yl)methyl]piperidin-1-yl}-2,3-dihydro-1H-isoindole-1,3-dione], the Dmax at wildtype LRRK2 was 50 to 70%; at G2019S LRRK2, at least 70%; in assay [1] it was 50 to 70%. For the same molecule, the DC50 (on wildtype LRRK2; at G2019S LRRK2; in assay [1]) was under 10 nM each time.
